From ChEMBL document CHEMBL3885881, “DrugMatrix”

Species on record: Rattus norvegicus
Assay: DrugMatrix - Regimen: Daily Repeat
Format: toxicity, organism-based, Sprague-Dawley
Design: regimen Daily Repeat, gender Male, age 6-8 weeks
Settings: in vivo, po, route oral GAVAGE, […]; for ABSOLUTE BASOPHIL / ABSOLUTE EOSINOPHIL / ABSOLUTE LYMPHOCYTE / ABSOLUTE MONOCYTE / ABSOLUTE SEGMENTED NEUTROPHIL / BASOPHIL / EOSINOPHIL / ERYTHROCYTE COUNT / HEMATOCRIT / HEMOGLOBIN / LEUKOCYTE COUNT / LYMPHOCYTE / MEAN CORPUSCULAR HEMOGLOBIN / MEAN CORPUSCULAR HEMOGLOBIN CONCENTRATION / MEAN CORPUSCULAR VOLUME / MONOCYTE / NEUTROPHIL / NUCLEATED RED BLOOD CELLS / PLATELET COUNT: tissue Blood; for ALANINE AMINOTRANSFERASE / ALBUMIN / ALKALINE PHOSPHATASE / ASPARTATE AMINOTRANSFERASE / BLOOD UREA NITROGEN / CARBON DIOXIDE / CHLORIDE / CHOLESTEROL / CREATINE PHOSPHOKINASE / CREATININE / GLUCOSE / LACTATE DEHYDROGENASE / LIPASE / PHOSPHORUS / POTASSIUM / SODIUM / TOTAL BILIRUBIN / TOTAL PROTEIN / URIC ACID: tissue Plasma
[1] = 0 mg/kg, 72 h, dose level Control, time 3 day
[2] = 0 mg/kg, 120 h, dose level Control, time 5 day
[3] = 67 mg/kg, 72 h, dose level Low, time 3 day
[4] = 67 mg/kg, 120 h, dose level Low, time 5 day

SMILES: Cc1cccc(C)c1NC(=O)C(C)N (stereo unspecified) [TOCAINIDE]
- ABSOLUTE BASOPHIL [1]: 0 CELLS/uL
- ABSOLUTE EOSINOPHIL [1]: 41.83 CELLS/uL
- ABSOLUTE LYMPHOCYTE [1]: 8545.5 CELLS/uL
- ABSOLUTE MONOCYTE [1]: 240 CELLS/uL
- ABSOLUTE SEGMENTED NEUTROPHIL [1]: 906 CELLS/uL
- BASOPHIL [1]: 0%
- EOSINOPHIL [1]: 0.33%
- ERYTHROCYTE COUNT [1]: 5.6 x10E6/uL
- HEMATOCRIT [1]: 35.4%
- HEMOGLOBIN [1]: 13.42 G/DL
- LEUKOCYTE COUNT [1]: 9.73 x10E3/uL
- LYMPHOCYTE [1]: 87.83%
- MEAN CORPUSCULAR HEMOGLOBIN [1]: 23.98 pg
- MEAN CORPUSCULAR HEMOGLOBIN CONCENTRATION [1]: 37.92 G/DL
- MEAN CORPUSCULAR VOLUME [1]: 63.3 fL
- MONOCYTE [1]: 2.5%
- NEUTROPHIL [1]: 9.33%
- NUCLEATED RED BLOOD CELLS [1]: 0 /100WBC
- PLATELET COUNT [1]: 1032 x10E3/uL
- ALANINE AMINOTRANSFERASE [1]: 72.83 u/L
- ALBUMIN [1]: 4 G/DL
- ALKALINE PHOSPHATASE [1]: 322.83 u/L
- ASPARTATE AMINOTRANSFERASE [1]: 102.67 u/L
- BLOOD UREA NITROGEN [1]: 12 mg/dL
- CARBON DIOXIDE [1]: 34.33 mmol/L
- CHLORIDE [1]: 97.67 MEQ/L
- CHOLESTEROL [1]: 82.5 mg/dL
- CREATINE PHOSPHOKINASE [1]: 410.33 u/L
- CREATININE [1]: 0.18 mg/dL
- GLUCOSE [1]: 164.5 mg/dL
- LACTATE DEHYDROGENASE [1]: 119.5 u/L
- LIPASE [1]: 11.83 u/L
- PHOSPHORUS [1]: 9.52 mg/dL
- POTASSIUM [1]: 5.56 MEQ/L
- SODIUM [1]: 142.48 MEQ/L
- TOTAL BILIRUBIN [1]: 0.18 mg/dL
- TOTAL PROTEIN [1]: 5.77 G/DL
- URIC ACID [1]: 0.48 mg/dL
- ABSOLUTE BASOPHIL [2]: 0 CELLS/uL
- ABSOLUTE EOSINOPHIL [2]: 0 CELLS/uL
- ABSOLUTE LYMPHOCYTE [2]: 9065 CELLS/uL
- ABSOLUTE MONOCYTE [2]: 341.33 CELLS/uL
- ABSOLUTE SEGMENTED NEUTROPHIL [2]: 527 CELLS/uL
- BASOPHIL [2]: 0%
- EOSINOPHIL [2]: 0%
- ERYTHROCYTE COUNT [2]: 5.25 x10E6/uL
- HEMATOCRIT [2]: 34.08%
- HEMOGLOBIN [2]: 13.5 G/DL
- LEUKOCYTE COUNT [2]: 9.93 x10E3/uL
- LYMPHOCYTE [2]: 91.17%
- MEAN CORPUSCULAR HEMOGLOBIN [2]: 25.7 pg
- MEAN CORPUSCULAR HEMOGLOBIN CONCENTRATION [2]: 39.62 G/DL
- MEAN CORPUSCULAR VOLUME [2]: 64.93 fL
- MONOCYTE [2]: 3.33%
- NEUTROPHIL [2]: 5.5%
- NUCLEATED RED BLOOD CELLS [2]: 0 /100WBC
- PLATELET COUNT [2]: 1077.5 x10E3/uL
- ALANINE AMINOTRANSFERASE [2]: 57.83 u/L
- ALBUMIN [2]: 4.07 G/DL
- ALKALINE PHOSPHATASE [2]: 319.17 u/L
- ASPARTATE AMINOTRANSFERASE [2]: 83.33 u/L
- BLOOD UREA NITROGEN [2]: 13.67 mg/dL
- CARBON DIOXIDE [2]: 30.83 mmol/L
- CHLORIDE [2]: 98.33 MEQ/L
- CHOLESTEROL [2]: 64.83 mg/dL
- CREATINE PHOSPHOKINASE [2]: 263.67 u/L
- CREATININE [2]: 0.2 mg/dL
- GLUCOSE [2]: 182.83 mg/dL
- LACTATE DEHYDROGENASE [2]: 124 u/L
- LIPASE [2]: 10.5 u/L
- PHOSPHORUS [2]: 10 mg/dL
- POTASSIUM [2]: 5.78 MEQ/L
- SODIUM [2]: 142.48 MEQ/L
- TOTAL BILIRUBIN [2]: 0.2 mg/dL
- TOTAL PROTEIN [2]: 6 G/DL
- URIC ACID [2]: 0.7 mg/dL
- ABSOLUTE BASOPHIL [3]: 0 CELLS/uL
- ABSOLUTE EOSINOPHIL [3]: 83.33 CELLS/uL
- ABSOLUTE LYMPHOCYTE [3]: 10800 CELLS/uL
- ABSOLUTE MONOCYTE [3]: 251.33 CELLS/uL
- ABSOLUTE SEGMENTED NEUTROPHIL [3]: 1265.33 CELLS/uL
- BASOPHIL [3]: 0%
- EOSINOPHIL [3]: 0.67%
- ERYTHROCYTE COUNT [3]: 5.15 x10E6/uL
- HEMATOCRIT [3]: 32.47%
- HEMOGLOBIN [3]: 12.83 G/DL
- LEUKOCYTE COUNT [3]: 12.4 x10E3/uL
- LYMPHOCYTE [3]: 86.67%
- MEAN CORPUSCULAR HEMOGLOBIN [3]: 24.97 pg
- MEAN CORPUSCULAR HEMOGLOBIN CONCENTRATION [3]: 39.5 G/DL
- MEAN CORPUSCULAR VOLUME [3]: 63.07 fL
- MONOCYTE [3]: 2.33%
- NEUTROPHIL [3]: 10.33%
- NUCLEATED RED BLOOD CELLS [3]: 0 /100WBC
- PLATELET COUNT [3]: 980 x10E3/uL
- ALANINE AMINOTRANSFERASE [3]: 64 u/L
- ALBUMIN [3]: 3.83 G/DL
- ALKALINE PHOSPHATASE [3]: 379.67 u/L
- ASPARTATE AMINOTRANSFERASE [3]: 79.67 u/L
- BLOOD UREA NITROGEN [3]: 12.33 mg/dL
- CARBON DIOXIDE [3]: 26 mmol/L
- CHLORIDE [3]: 101 MEQ/L
- CHOLESTEROL [3]: 69.33 mg/dL
- CREATINE PHOSPHOKINASE [3]: 212.67 u/L
- CREATININE [3]: 0.29 mg/dL
- GLUCOSE [3]: 163 mg/dL
- LACTATE DEHYDROGENASE [3]: 145.67 u/L
- LIPASE [3]: 16 u/L
- PHOSPHORUS [3]: 10.33 mg/dL
- POTASSIUM [3]: 5.62 MEQ/L
- SODIUM [3]: 142.37 MEQ/L
- TOTAL BILIRUBIN [3]: 0.2 mg/dL
- TOTAL PROTEIN [3]: 5.4 G/DL
- URIC ACID [3]: 0.83 mg/dL
- ABSOLUTE BASOPHIL [4]: 0 CELLS/uL
- ABSOLUTE EOSINOPHIL [4]: 0 CELLS/uL
- ABSOLUTE LYMPHOCYTE [4]: 9456 CELLS/uL
- ABSOLUTE MONOCYTE [4]: 276.33 CELLS/uL
- ABSOLUTE SEGMENTED NEUTROPHIL [4]: 701 CELLS/uL
- BASOPHIL [4]: 0%
- EOSINOPHIL [4]: 0%
- ERYTHROCYTE COUNT [4]: 5.11 x10E6/uL
- HEMATOCRIT [4]: 34.43%
- HEMOGLOBIN [4]: 13.2 G/DL
- LEUKOCYTE COUNT [4]: 10.43 x10E3/uL
- LYMPHOCYTE [4]: 90.67%
- MEAN CORPUSCULAR HEMOGLOBIN [4]: 25.9 pg
- MEAN CORPUSCULAR HEMOGLOBIN CONCENTRATION [4]: 38.37 G/DL
- MEAN CORPUSCULAR VOLUME [4]: 67.47 fL
- MONOCYTE [4]: 2.67%
- NEUTROPHIL [4]: 6.67%
- NUCLEATED RED BLOOD CELLS [4]: 0 /100WBC
- PLATELET COUNT [4]: 1124 x10E3/uL
- ALANINE AMINOTRANSFERASE [4]: 58.33 u/L
- ALBUMIN [4]: 4.1 G/DL
- ALKALINE PHOSPHATASE [4]: 361 u/L
- ASPARTATE AMINOTRANSFERASE [4]: 79.67 u/L
- BLOOD UREA NITROGEN [4]: 10.67 mg/dL
- CARBON DIOXIDE [4]: 30.67 mmol/L
- CHLORIDE [4]: 95 MEQ/L
- CHOLESTEROL [4]: 65.67 mg/dL
- CREATININE [4]: 0.16 mg/dL
- GLUCOSE [4]: 174.33 mg/dL
- LACTATE DEHYDROGENASE [4]: 154.67 u/L
- LIPASE [4]: 9.67 u/L
- PHOSPHORUS [4]: 10.87 mg/dL
- POTASSIUM [4]: 5.33 MEQ/L
- SODIUM [4]: 137.97 MEQ/L
- TOTAL BILIRUBIN [4]: 0.17 mg/dL
- TOTAL PROTEIN [4]: 5.97 G/DL
- URIC ACID [4]: 0.7 mg/dL
